According to patent publication US12077503B2, “Substituted cyclic amides and their use as herbicides” (FMC CORPORATION, priority 2015, dated 2024):

Experiments:
Assay in all cases: Test C preemergence
Format in all cases: in vivo
[1] = system: nutsedge, yellow (yellow nutsedge, Cyperus esculentus); conditions: for Plant response rating, Nutsedge, Yellow: scale 0 to 100, 0 no effect, 100 complete control
Description: (§1) Seeds of plant species selected from blackgrass (Alopecurus myosuroides), ryegrass, Italian (Italian ryegrass, Lolium multiflorum), wheat (winter wheat, Triticum aestivum), Galium (catchweed bedstraw, Galium aparine), corn (Zea mays), crabgrass, large (large crabgrass, Digitaria sanguinalis), foxtail, giant (giant foxtail, Setaria faberii), johnsongrass (Sorghum halepense), lambsquarters (Chenopodium album), morningglory (Ipomoea coccinea), nutsedge, yellow (yellow nutsedge, Cyperus esculentus), pigweed (Amaranthus retroflexus), ragweed (common ragweed, Ambrosia elatior), soybean (Glycine max), barnyardgrass (Echinochloa crus-galli), oilseed rape (Brassica napus), waterhemp (common waterhemp, Amaranthus rudis) and velvetleaf (Abutilon theophrasti) were planted into a blend of loam soil and sand and treated preemergence with test chemicals formulated in a non-phytotoxic solvent mixture which included a surfactant.
(§2) At the same time, plants selected from these crop and weed species and also Kochia (Kochia scoparia), oat, wild (wild oat, Avena fatua), and chickweed (common chickweed, Stellaria media) were planted in pots containing Sunshine Redi-Earth® planting medium comprising spaghnum peat moss, vermiculite, starter nutrients and dolomitic limestone and treated with postemergence applications of test chemicals formulated in the same manner. Plants ranged in height from 2 to 18 cm (1- to 4-leaf stage) for postemergence treatments. Treated plants and controls were maintained in a greenhouse for 13 to 15 d, after which time all species were compared to controls and visually evaluated. Plant response ratings, summarized in Table C, are based on a scale of 0 to 100 where 0 is no effect and 100 is complete control. A dash (-) response means no test result.

[2] = system: waterhemp (common waterhemp, Amaranthus rudis); conditions: for Plant response rating, Waterhemp: scale 0 to 100, 0 no effect, 100 complete control
Description: as §1, §2

[3] = system: ryegrass, Italian (Italian ryegrass, Lolium multiflorum); conditions: for Plant response rating, Ryegrass, Italian: scale 0 to 100, 0 no effect, 100 complete control
Description: as §1, §2

[4] = system: barnyardgrass (Echinochloa crus-galli); conditions: for Plant response rating, Barnyardgrass: scale 0 to 100, 0 no effect, 100 complete control
Description: as §1, §2

[5] = system: ragweed (common ragweed, Ambrosia elatior); conditions: for Plant response rating, Ragweed: scale 0 to 100, 0 no effect, 100 complete control
Description: as §1, §2

corn (Zea mays) = conditions: for Plant response rating, Corn: scale 0 to 100, 0 no effect, 100 complete control
Description: as §1, §2

[6] = system: morningglory (Ipomoea coccinea); conditions: for Plant response rating, Morningglory: scale 0 to 100, 0 no effect, 100 complete control
Description: as §1, §2

[7] = system: foxtail, giant (giant foxtail, Setaria faberii); conditions: for Plant response rating, Foxtail, Giant: scale 0 to 100, 0 no effect, 100 complete control
Description: as §1, §2

[8] = system: blackgrass (Alopecurus myosuroides); conditions: for Plant response rating, Blackgrass: scale 0 to 100, 0 no effect, 100 complete control
Description: as §1, §2

[9] = system: crabgrass, large (large crabgrass, Digitaria sanguinalis); conditions: for Plant response rating, Crabgrass, Large: scale 0 to 100, 0 no effect, 100 complete control
Description: as §1, §2

[10] = system: Galium (catchweed bedstraw, Galium aparine); conditions: for Plant response rating, Galium: scale 0 to 100, 0 no effect, 100 complete control
Description: as §1, §2

[11] = system: pigweed (Amaranthus retroflexus); conditions: for Plant response rating, Pigweed: scale 0 to 100, 0 no effect, 100 complete control
Description: as §1, §2

[12] = system: oilseed rape (Brassica napus); conditions: for Plant response rating, Oilseed Rape: scale 0 to 100, 0 no effect, 100 complete control
Description: as §1, §2

[13] = system: johnsongrass (Sorghum halepense); conditions: for Plant response rating, Johnsongrass: scale 0 to 100, 0 no effect, 100 complete control
Description: as §1, §2

[14] = system: wheat (winter wheat, Triticum aestivum); conditions: for Plant response rating, Wheat: scale 0 to 100, 0 no effect, 100 complete control
Description: as §1, §2

[15] = system: velvetleaf (Abutilon theophrasti); conditions: for Plant response rating, Velvetleaf: scale 0 to 100, 0 no effect, 100 complete control
Description: as §1, §2

soybean (Glycine max) = conditions: for Plant response rating, Soybean: scale 0 to 100, 0 no effect, 100 complete control
Description: as §1, §2

[16] = system: lambsquarters (Chenopodium album); conditions: for Plant response rating, Lambsquarters: scale 0 to 100, 0 no effect, 100 complete control
Description: as §1, §2

[17] = 31 g ai/ha, 0 is no effect, 100 is complete control

CN1CC(c2cccc(OC(F)F)c2)C(C(=O)Nc2ccccc2S(C)(=O)=O)C1=O (stereo not drawn) [Compound 523]
Plant response rating (scale of 0 to 100), Nutsedge, Yellow [1, 17]: 0
Plant response rating, Nutsedge, Yellow ([1]; 62 g ai/ha): 0
Plant response rating, Nutsedge, Yellow ([1]; 125 g ai/ha): 0
Plant response rating, Nutsedge, Yellow ([1]; 250 g ai/ha): 40
Plant response rating (scale of 0 to 100), Waterhemp [2, 17]: 55
Plant response rating, Waterhemp ([2]; 62 g ai/ha): 65
Plant response rating, Waterhemp ([2]; 125 g ai/ha): 65
Plant response rating, Waterhemp ([2]; 250 g ai/ha): 80
Plant response rating (scale of 0 to 100), Ryegrass, Italian [3, 17]: 0
Plant response rating, Ryegrass, Italian ([3]; 62 g ai/ha): 5
Plant response rating, Ryegrass, Italian ([3]; 125 g ai/ha): 5
Plant response rating, Ryegrass, Italian ([3]; 250 g ai/ha): 20
Plant response rating (scale of 0 to 100), Barnyardgrass [4, 17]: 65
Plant response rating, Barnyardgrass ([4]; 62 g ai/ha): 95
Plant response rating, Barnyardgrass ([4]; 125 g ai/ha): 98
Plant response rating, Barnyardgrass ([4]; 250 g ai/ha): 100
Plant response rating (scale of 0 to 100), Ragweed [5, 17]: 5
Plant response rating, Ragweed ([5]; 62 g ai/ha): 15
Plant response rating, Ragweed ([5]; 125 g ai/ha): 40
Plant response rating, Ragweed ([5]; 250 g ai/ha): 70
Plant response rating (scale of 0 to 100), Corn (corn (Zea mays); [17]): 0
Plant response rating, Corn (corn (Zea mays); 62 g ai/ha): 20
Plant response rating, Corn (corn (Zea mays); 125 g ai/ha): 65
Plant response rating, Corn (corn (Zea mays); 250 g ai/ha): 85
Plant response rating (scale of 0 to 100), Morningglory [6, 17]: 20
Plant response rating, Morningglory ([6]; 62 g ai/ha): 35
Plant response rating, Morningglory ([6]; 125 g ai/ha): 25
Plant response rating, Morningglory ([6]; 250 g ai/ha): 35
Plant response rating (scale of 0 to 100), Foxtail, Giant [7, 17]: 85
Plant response rating, Foxtail, Giant ([7]; 62 g ai/ha): 90
Plant response rating, Foxtail, Giant ([7]; 125 g ai/ha): 98
Plant response rating, Foxtail, Giant ([7]; 250 g ai/ha): 98
Plant response rating (scale of 0 to 100), Blackgrass [8, 17]: 0
Plant response rating, Blackgrass ([8]; 62 g ai/ha): 0
Plant response rating, Blackgrass ([8]; 125 g ai/ha): 20
Plant response rating, Blackgrass ([8]; 250 g ai/ha): 90
Plant response rating (scale of 0 to 100), Crabgrass, Large [9, 17]: 90
Plant response rating, Crabgrass, Large ([9]; 62 g ai/ha): 95
Plant response rating, Crabgrass, Large ([9]; 125 g ai/ha): 100
Plant response rating, Crabgrass, Large ([9]; 250 g ai/ha): 98
Plant response rating (scale of 0 to 100), Galium [10, 17]: 0
Plant response rating, Galium ([10]; 62 g ai/ha): 80
Plant response rating, Galium ([10]; 125 g ai/ha): 80
Plant response rating, Galium ([10]; 250 g ai/ha): 80
Plant response rating (scale of 0 to 100), Pigweed [11, 17]: 75
Plant response rating, Pigweed ([11]; 62 g ai/ha): 100
Plant response rating, Pigweed ([11]; 125 g ai/ha): 90
Plant response rating, Pigweed ([11]; 250 g ai/ha): 90
Plant response rating (scale of 0 to 100), Oilseed Rape [12, 17]: 0
Plant response rating, Oilseed Rape ([12]; 62 g ai/ha): 0
Plant response rating, Oilseed Rape ([12]; 125 g ai/ha): 30
Plant response rating, Oilseed Rape ([12]; 250 g ai/ha): 60
Plant response rating (scale of 0 to 100), Johnsongrass [13, 17]: 0
Plant response rating, Johnsongrass ([13]; 62 g ai/ha): 30
Plant response rating, Johnsongrass ([13]; 125 g ai/ha): 60
Plant response rating, Johnsongrass ([13]; 250 g ai/ha): 70
Plant response rating (scale of 0 to 100), Wheat [14, 17]: 0
Plant response rating, Wheat ([14]; 62 g ai/ha): 30
Plant response rating, Wheat ([14]; 125 g ai/ha): 50
Plant response rating, Wheat ([14]; 250 g ai/ha): 80
Plant response rating (scale of 0 to 100), Velvetleaf [15, 17]: 0
Plant response rating, Velvetleaf ([15]; 62 g ai/ha): 0
Plant response rating, Velvetleaf ([15]; 125 g ai/ha): 30
Plant response rating, Velvetleaf ([15]; 250 g ai/ha): 45
Plant response rating (scale of 0 to 100), Soybean (soybean (Glycine max); [17]): 10
Plant response rating, Soybean (soybean (Glycine max); 62 g ai/ha): 25
Plant response rating, Soybean (soybean (Glycine max); 125 g ai/ha): 30
Plant response rating, Soybean (soybean (Glycine max); 250 g ai/ha): 45
Plant response rating (scale of 0 to 100), Lambsquarters [16, 17]: 20
Plant response rating, Lambsquarters ([16]; 62 g ai/ha): 70
Plant response rating, Lambsquarters ([16]; 125 g ai/ha): 70
Plant response rating, Lambsquarters ([16]; 250 g ai/ha): 65

CN1CC(c2cccc(OC(F)(F)C(F)F)c2)C(C(=O)Nc2cccc(F)c2F)C1=O (stereo not drawn) [Compound 392]
Plant response rating, Nutsedge, Yellow ([1]; 31 g ai/ha): 0
Plant response rating, Nutsedge, Yellow ([1]; 62 g ai/ha): 0
Plant response rating, Nutsedge, Yellow ([1]; 125 g ai/ha): 0
Plant response rating, Nutsedge, Yellow ([1]; 250 g ai/ha): 0
Plant response rating, Waterhemp ([2]; 62 g ai/ha): 85
Plant response rating, Waterhemp ([2]; 125 g ai/ha): 90
Plant response rating, Waterhemp ([2]; 250 g ai/ha): 90
Plant response rating, Ryegrass, Italian ([3]; 62 g ai/ha): 40
Plant response rating, Ryegrass, Italian ([3]; 125 g ai/ha): 55
Plant response rating, Ryegrass, Italian ([3]; 250 g ai/ha): 90
Plant response rating, Barnyardgrass ([4]; 31 g ai/ha): 90
Plant response rating, Barnyardgrass ([4]; 62 g ai/ha): 90
Plant response rating, Barnyardgrass ([4]; 125 g ai/ha): 90
Plant response rating, Barnyardgrass ([4]; 250 g ai/ha): 95
Plant response rating, Ragweed ([5]; 31 g ai/ha): 70
Plant response rating, Ragweed ([5]; 62 g ai/ha): 45
Plant response rating, Ragweed ([5]; 125 g ai/ha): 60
Plant response rating, Ragweed ([5]; 250 g ai/ha): 70
Plant response rating, Corn (corn (Zea mays); 31 g ai/ha): 45
Plant response rating, Corn (corn (Zea mays); 62 g ai/ha): 65
Plant response rating, Corn (corn (Zea mays); 125 g ai/ha): 55
Plant response rating, Corn (corn (Zea mays); 250 g ai/ha): 75
Plant response rating, Morningglory ([6]; 31 g ai/ha): 0
Plant response rating, Morningglory ([6]; 62 g ai/ha): 0
Plant response rating, Morningglory ([6]; 125 g ai/ha): 0
Plant response rating, Morningglory ([6]; 250 g ai/ha): 15
Plant response rating, Foxtail, Giant ([7]; 31 g ai/ha): 90
Plant response rating, Foxtail, Giant ([7]; 62 g ai/ha): 95
Plant response rating, Foxtail, Giant ([7]; 125 g ai/ha): 95
Plant response rating, Foxtail, Giant ([7]; 250 g ai/ha): 95
Plant response rating, Blackgrass ([8]; 31 g ai/ha): 20
Plant response rating, Blackgrass ([8]; 62 g ai/ha): 45
Plant response rating, Blackgrass ([8]; 125 g ai/ha): 70
Plant response rating, Blackgrass ([8]; 250 g ai/ha): 60
Plant response rating, Crabgrass, Large ([9]; 31 g ai/ha): 90
Plant response rating, Crabgrass, Large ([9]; 62 g ai/ha): 95
Plant response rating, Crabgrass, Large ([9]; 125 g ai/ha): 95
Plant response rating, Crabgrass, Large ([9]; 250 g ai/ha): 95
Plant response rating, Pigweed ([11]; 31 g ai/ha): 75
Plant response rating, Pigweed ([11]; 62 g ai/ha): 80
Plant response rating, Pigweed ([11]; 125 g ai/ha): 85
Plant response rating, Pigweed ([11]; 250 g ai/ha): 90
Plant response rating, Oilseed Rape ([12]; 31 g ai/ha): 70
Plant response rating, Oilseed Rape ([12]; 62 g ai/ha): 80
Plant response rating, Oilseed Rape ([12]; 125 g ai/ha): 85
Plant response rating, Oilseed Rape ([12]; 250 g ai/ha): 90
Plant response rating, Johnsongrass ([13]; 31 g ai/ha): 70
Plant response rating, Johnsongrass ([13]; 62 g ai/ha): 85
Plant response rating, Johnsongrass ([13]; 125 g ai/ha): 85
Plant response rating, Johnsongrass ([13]; 250 g ai/ha): 90
Plant response rating, Wheat ([14]; 62 g ai/ha): 35
Plant response rating, Wheat ([14]; 125 g ai/ha): 80
Plant response rating, Wheat ([14]; 250 g ai/ha): 75
Plant response rating, Velvetleaf ([15]; 62 g ai/ha): 40
Plant response rating, Velvetleaf ([15]; 125 g ai/ha): 60
Plant response rating, Velvetleaf ([15]; 250 g ai/ha): 70
Plant response rating, Soybean (soybean (Glycine max); 62 g ai/ha): 100
Plant response rating, Soybean (soybean (Glycine max); 125 g ai/ha): 15
Plant response rating, Soybean (soybean (Glycine max); 250 g ai/ha): 5
Plant response rating, Lambsquarters ([16]; 31 g ai/ha): 60
Plant response rating, Lambsquarters ([16]; 62 g ai/ha): 70
Plant response rating, Lambsquarters ([16]; 125 g ai/ha): 75
Plant response rating, Lambsquarters ([16]; 250 g ai/ha): 75
